The results in this text go back to patent publication US20110028758A1, “Trans-cinnamic acid derivative, its preparation mathod and the use” (priority 2007, published 2011).

In one series the test system is human glioma U251 cells. Briefly: MTT anti-tumor test in vitro, U251. The format is cell-based. From the text:
(§1) A complete culture medium is used for diluting the above original solution into corresponding concentrations for later use.
(§2) Human cervical carcinoma Hela cells, human hepatoma BEL-7402 cells, mucinous Human epidermoid A549 lung cancer cells, human breast cancer MCF-7/S cells, human glioma U251 cells, and human normal embryonic kidney HEK-293 cells are purchased from USA, American Type Culture Collection (ATCC). All the tumor cells are used the DMEM medium (containing 10% FBS, 100 U/ml penicillin and 100 μg/ml streptomycin) for culturing and subculturing, and HEK-293 cells are using RPMI1640 medium (10% FBS, 100 U/ml penicillin, and 100 μg/ml streptomycin) for culturing and subculturing, wherein the culture condition is in a 5% CO2 incubator at 37° C.
(§3) Subculture six kinds of cells, which has a logarithmic growing period, adherent rate about 80%, and in good condition, such as human cervical carcinoma Hela cells, human hepatoma BEL-7402 cells, mucinous Human epidermoid A549 lung cancer cells, human breast cancer MCF-7/S cells, human glioma U251 cells, and human normal embryonic kidney HEK-293 cells. Discard the culture medium, rinse 1-2 times with PBS to remove serum, add 1 ml 0.25% Trypsin-0.01% EDTA (37° C. incubation) to digest for 1-2 minutes, add FBS culture medium to terminate the above digestion, centrifuge at a speed below 800 r/min for 2-3 minutes and discard the supernatant, re-suspended cells in 10% FBS medium, tack the cell suspension liquid for cell counting, adjust the density of the above liquid to 1×10^5/ml, then inoculate to a 96-holes plates (100 μl/hole), and then incubate in 5% CO2 incubator at 37° C. overnight. The next day add above cells to different concentrations of I-a, I-b, I-c and I-d, 100 μl/hole (its final concentration is respectively 30, 60, 120, 240, 480 μg/ml); meanwhile, set up the blank control group (0 μM), and establish 3 holes. Continuing the cultural process, discard the culture medium after 48 hours that the drug has been effected, add 100 μl PBS of 0.5 mg/ml MTT (PH 7.2) into each holes, after 4 hours culture, remove the culture medium by adherent cells express flipping method, add 100 μl of DMSO to each holes, oscillate it by micro-oscillation device for 5 minutes, and measure the OD value at 490 nm wavelength. Repeat the above experiment three times to get an average value. Calculate the inhibition rate (IR %) of the tumor cell proliferation in vitro from different concentrations of I-a, I-b, I-c, I-d by the following formula:
(§4) IR %=(1−ODsampale/ODcontrol)×100%
(§5) Use SPSS11.5 software to calculate the half inhibitory concentration IC50 of I-a, I-b, I-c and I-d. The results are shown in Table 2 to illustrate IC50 values (unit: μg/ml) of the four compounds.
Background: Tetrazolium dyes change colour on reduction, which living cells bring about.

For series [1] the following is noted: single tail vein administration 350 mg/kg.
Protocol: After the drug delivery, continuously observe the mice responses for 4 hours; after all, observe the mice twice a day (one is in the morning, and the other is in the afternoon) for 14 days, wherein the observation includes the appearance, behavior, secretions, excreta of the mice etc., and recording all the death situation, poisoning symptoms, the starting time and ending time of toxic reactions of the mice, severity, duration time of toxic, and to see if it is reversible reaction etc., sent it to the pathology examination if necessary, weight the mice before and after the drug delivered day of 3, 7, 10, and 14 days. After finishing the observation process, execute all of the mice, and anatomize the dead bodies of mice.
For series [2], the system named is human hepatoma BEL-7402 cells. The series can be described thus: MTT anti-tumor test in vitro, BEL-7402. The format is cell-based. To be noted: Bel- (BEL-7402).
Source text: as §1, §2, §3, §4, §5

The text on series [3]:
(§6) The 180 tumor-bearing mice are divided into 18 groups by the weigh of the mice, wherein each group has 10 mice (half male and half female). The drug delivery methods of each group are shown in Table 3 to illustrate eighteen groups of mice drug delivery situation.
(§7) Group 2 is the cyclophosphamide (CTX) group, and the mice of group 2 are only given the cyclophosphamide in the intraperitoneal of the mice on the second day of the tumor-bearing.
(§8) Group 3 to 18 groups are given the four compounds respectively, wherein the groups delivered 25 mg/kg drug are tail vein low-dose group, wherein the groups delivered 50 mg/kg drugs are the tail vein medium-dose group, wherein the groups delivered 100 mg/kg drugs are the tail vein high-dose group, wherein the groups delivered 200 mg/kg drugs are the oral enteral group. These mice from group 3 to 18 start the drug delivery on the second day of the tumor-bearing, and delivered once a day for 10 sequent days.
After the drug delivery, weight the mice weight, then execute the mice, and then weight the spleen and thymus weight by electronic weighting scale respectively. The spleen index and thymus index are the weight (mg) of mice spleen, thymus of each group/mice weight (g).

Series [4] deals with mucinous Human epidermoid A549 lung cancer cells. Briefly: MTT anti-tumor test in vitro, A549. In kind it is cell-based. The note with it: for IC50 value: A549, MTT, 48 hours.
Source text: as §1, §2, §3, §4, §5

Series [5] concerns human cervical carcinoma Hela cells. The series can be described thus: MTT anti-tumor test in vitro, Hela. The format is cell-based. The note with it: for IC50 value: Hela, MTT, 48 hours.
Source text: as §1, §2, §3, §4, §5

Series [6] has as its system mice ascites hepatoma cell strain H22. The series can be described thus: Anti-tumor test in vivo, mice transplanted tumor of liver cancer H22. On the set-up: species or system Kunming mice. The procedure:
The mice ascites hepatoma cell strain H22 is purchased from the Experimental Center of Zhongshan University.
Recovery the mice ascites hepatoma cell strain H22, put the cell suspension liquid into a centrifugal tube and use the 4° C. saline to wash the suspension liquid twice, then centrifuge to discard the supernatant, add appropriate 4° C. saline to dilute the suspension liquid, count cells with 0.2% trypan blue, adjust the density to 10^7 cell/ml, according to 0.2 (ml/mice) intraperitoneal inoculation H22 cell suspension liquid.
After ten days of the intraperitoneal inoculation, the cervical vertebra is dislocated. Disinfect the mice abdominal skin, and suck the milky ascites with a sterile syringe, then adjust the concentration of tumor cells to 1×10^7 cell/ml with injection used saline. Disinfect the right armpit skin of the Kunming mice with alcohol swab, subcutaneously vaccinate the cell suspension liquid 0.2 ml, conventional feeding. […] Totally there are 180 tumor-bearing mice.
as §6
Group 1 is the model group, and the mice of group 1 are given the tail vein saline injection daily started on the second day of the tumor-bearing for 10 days.
as §7, §8
The above drug deliveries are 20 ml/kg.
After finishing the drug delivery process, weight the mice, then kill the mice by pulling off the neck, and anatomy to get the tumor tissue of the mice on the next day of finishing the drug delivery process, and then weight the anatomized tumor by electronic weighing scales to calculate the inhibition rate.

Series [7] relates to human normal embryonic kidney HEK-293 cells. Briefly: MTT test on normal cells, HEK-293. In kind it is cell-based. To be noted: HEK- (HEK-293), MTT, 48 hours.
Source text: as §1, §2
Subculture six kinds of cells, which has a logarithmic growing period, adherent rate about 80%, and in good condition, such as human cervical carcinoma Hela cells, human hepatoma BEL-7402 cells, mucinous Human epidermoid A549 lung cancer cells, human breast cancer MCF-7/S cells, human glioma U251 cells, and human normal embryonic kidney HEK-293 cells. […] Repeat the above experiment three times to get an average value.
as §4

Series [8] has as its system human breast cancer MCF-7/S cells. Briefly: MTT anti-tumor test in vitro, MCF-7/S. To be noted: MCF-7 (MCF-7/S). In kind it is cell-based.
Source text: as §1, §2, §3, §4, §5

Where [9] appears, read: average of three experiments ± SD, 48 hours.
The mark [10] stands for this setting: average of three experiments ± SD.
The mark [11] stands for this setting: ip. 60/single mg/kg on the second day of tumor-bearing, H22 tumor-bearing mice.
Setting [12] is: ip. 60/single mg/kg on the second day of tumor-bearing.

Like-named read-outs stand apart in the source and are kept apart here.

Take “2,4-dimethoxy-3-isopentenyl-cinnamic acid (E:Z=1:1) [I-d]”: the IC50 value was 204.44 ± 9.50 µg/mL with human glioma U251 cells (setting [9]); 210 µg/mL in the series on human glioma U251 cells (experiment 1, 48 hours); 193 µg/mL with human glioma U251 cells (experiment 2, 48 hours); 216.72 ± 5.07 µg/mL in [2] (setting [9]); 221 µg/mL in series [2] (experiment 1, 48 hours); 211 µg/mL in [2] (experiment 2, 48 hours). The IC50 value in [4] (experiment 1) is 190 µg/mL; in series [4] (experiment 2) it was 183 µg/mL; in series [5] (setting [10]), 153.59 ± 13.03 µg/mL; in series [5] (experiment 1) it was 144 µg/mL; in series [5] (experiment 2), 149 µg/mL; in [7] (setting [10]), 350.77 ± 14.09 µg/mL. The IC50 value came out at 347 µg/mL in series [7] (experiment 1); 366 µg/mL in series [7] (experiment 2); 193.46 ± 7.57 µg/mL in series [8] (setting [9]); 200 µg/mL in [8] (experiment 1, 48 hours); 196 µg/mL in series [8] (experiment 2, 48 hours). Also, the “drug reaction after administration” value in series [1] is “abnormally excited at first, and then become in an inhibit state”. In addition, the “Mice weight/g After drug delivery” value in series [3] (mouse, in vivo) stood at 20.0 ± 2.1 g. Moreover, in [3] (mouse, in vivo), the “Mice weight/g Before drug deli.” value was 24.6 ± 2.9 g. The “effect near the tail vein of the mice and its surrounding tissue” value in [3] (mouse, in vivo) was “irritation or corrosive”. Also, the “general observation after injection (central nervous signs)” value in series [3] (mouse, in vivo) is “central nerve inhibition phenomenon”. The “splenomegaly of the tumor-bearing mice” value in [3] (mouse, in vivo) is recorded as “can cause the splenomegaly”. Also, the “A549 cell proliferation IC50 values” in series [4] (at 48 hours) turned out to be 184.56 ± 5.80 µg/mL. Further, the “HeLa cell proliferation IC50 values” in series [5] (at 48 hours) stood at 148.59 ± 5.96 µg/mL. Moreover, the Tumor weight/g in series [6] (i.g. 200 mg·(kg·d)^−1, once a day for 10 days) was found to be 0.991 ± 0.410 g; in [6] (i.v. 25 mg·(kg·d)^−1, once a day for 10 days), 1.307 ± 0.436 g; in [6] (i.v. 50 mg·(kg·d)^−1, once a day for 10 days), 1.068 ± 0.437 g; in series [6] (i.v. 100 mg·(kg·d)^−1, once a day for 10 days), 0.901 ± 0.425 g. The “IR/% (inhibition rate)” value in [6] (i.v. 25 mg·(kg·d)^−1, once a day for 10 days (low-dose group)) is listed as 14.7%; in [6] (i.v. 50 mg·(kg·d)^−1, once a day for 10 days (medium-dose group)) it was 30.3%; in [6] (i.v. 100 mg·(kg·d)^−1, once a day for 10 days (high-dose group)) it was 41.2%.

In the case of `O=P1(N(CCCl)CCCl)NCCCO1` (centres unmarked) [CTX, cyclophosphamide, reference compound], in series [3] (setting [11]), the “Mice weight/g After drug delivery” value worked out at 19.6 ± 2.0 g, the “Mice weight/g Before drug deli.” value is on record as 23.6 ± 1.8 g, the “Spleen index/mg · g^−1” value is 3.00 ± 0.59 mg/g and the “Thymus index/mg · g^−1” value was 2.46 ± 0.65 mg/g. Besides, in [6] (setting [12]), the “IR/% (inhibition rate)” value amounted to 55.2% and the Tumor weight/g is 0.686 ± 0.303 g.
